Calls of active or inactive are those of the source. The rule behind the calls is not given here.
tested on: Rattus norvegicus; experiment: Antidiabetic activity in ZDF rat diabetic model assessed as decrease in glucose excursion at 44 mg/kg, po administered BID for 6 weeks by OGTT; assay type: functional, organism-based; design: dose 44 mg/kg

| Structure (SMILES) | Activity |
| --- | --- |
| N#C[C@@H]1CSCN1C(=O)CN(N)C1CCN(CC(=O)Nc2ccc(Cl)cn2)CC1 | Active |

tested on: Rattus norvegicus; experiment: Antidiabetic activity in n5-STZ rat diabetic model assessed as decrease in glucose excursion at 44 mg/kg, po administered as single dose by OGTT

| Structure (SMILES) | Activity |
| --- | --- |
| N#C[C@@H]1CSCN1C(=O)CN(N)C1CCN(CC(=O)Nc2ccc(Cl)cn2)CC1 | Active |

tested on: Rattus norvegicus; experiment: Inhibition of DPP4 in n5-STZ rat at 22 mg/kg, po administered as single dose after 4 hrs relative to vehicle treated control

| Structure (SMILES) | inhibition in vivo at 22 mg/kg [%] |
| --- | --- |
| N#C[C@@H]1CSCN1C(=O)CN(N)C1CCN(CC(=O)Nc2ccc(Cl)cn2)CC1 | 39.8 |

tested on: Rattus norvegicus; experiment: Antidiabetic activity in n5-STZ rat diabetic model assessed as stimulation of insulin response at 44 mg/kg, po administered as single dose by sandwich ELISA

| Structure (SMILES) | Activity |
| --- | --- |
| N#C[C@@H]1CSCN1C(=O)CN(N)C1CCN(CC(=O)Nc2ccc(Cl)cn2)CC1 | Active |

tested on: Rattus norvegicus; experiment: Antidiabetic activity in ZDF rat diabetic model assessed as increase in insulin release at 44 mg/kg, po administered BID for 6 weeks by sandwich ELISA; assay type: functional, organism-based; design: dose 44 mg/kg

| Structure (SMILES) | Activity |
| --- | --- |
| N#C[C@@H]1CSCN1C(=O)CN(N)C1CCN(CC(=O)Nc2ccc(Cl)cn2)CC1 | Active |

target: Dipeptidyl peptidase 4 (Sus scrofa, UniProt P22411); experiment: Inhibition of pig kidney DPP4 by spectrophotometric method
Sequence (P22411 whole entry): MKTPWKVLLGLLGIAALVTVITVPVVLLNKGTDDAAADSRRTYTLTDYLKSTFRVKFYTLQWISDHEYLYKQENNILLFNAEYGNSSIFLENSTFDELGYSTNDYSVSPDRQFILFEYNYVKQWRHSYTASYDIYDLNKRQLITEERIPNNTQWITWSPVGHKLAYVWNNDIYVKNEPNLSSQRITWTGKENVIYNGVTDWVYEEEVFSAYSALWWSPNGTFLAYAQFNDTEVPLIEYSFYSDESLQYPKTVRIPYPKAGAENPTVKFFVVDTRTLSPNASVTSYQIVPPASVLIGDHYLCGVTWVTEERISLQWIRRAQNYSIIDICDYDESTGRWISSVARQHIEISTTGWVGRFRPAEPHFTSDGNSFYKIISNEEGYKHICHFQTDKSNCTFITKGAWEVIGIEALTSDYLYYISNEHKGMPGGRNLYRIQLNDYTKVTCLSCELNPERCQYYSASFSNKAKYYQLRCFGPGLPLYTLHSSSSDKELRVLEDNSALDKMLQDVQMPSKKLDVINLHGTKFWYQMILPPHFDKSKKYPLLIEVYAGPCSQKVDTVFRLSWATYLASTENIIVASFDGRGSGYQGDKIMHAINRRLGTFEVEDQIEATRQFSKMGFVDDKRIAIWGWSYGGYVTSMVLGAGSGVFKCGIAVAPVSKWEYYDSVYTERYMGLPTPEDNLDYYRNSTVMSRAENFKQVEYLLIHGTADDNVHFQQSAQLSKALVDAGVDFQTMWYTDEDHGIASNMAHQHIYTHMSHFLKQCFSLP

| Structure (SMILES) | IC50 [µM] |
| --- | --- |
| CN(CCN)C(=O)N1CCC(N(N)CC(=O)N2CSC[C@H]2C#N)CC1 | 1.23 |
| COC(=O)NN(CC(=O)N1CSC[C@H]1C#N)C1CCN(CC(=O)Nc2ccc(Cl)cn2)CC1 | 38.4 |
| COCCNC(=O)CN1CCC(N(N)CC(=O)N2CSC[C@H]2C#N)CC1 | 1.03 |
| CC1CCC(C(=O)N2CCC(N(N)CC(=O)N3CSC[C@H]3C#N)CC2)CC1 (some centres not stated) | 0.866 |
| N#C[C@@H]1CSCN1C(=O)CN(N)C1CCN(S(=O)(=O)c2ccc(Cl)cc2)CC1 | 1.45 |
| Cc1ccc(S(=O)(=O)N2CCC(N(N)CC(=O)N3CSC[C@H]3C#N)CC2)cc1 | 2.7 |
| N#C[C@@H]1CSCN1C(=O)CN(N)C1CCN(CC(=O)Nc2ccc(S(N)(=O)=O)cc2)CC1 [listing 1 of 2 here] | 0.098 |
| N#C[C@@H]1CCCN1C(=O)CN(N)C1CCN(CC(=O)Nc2ccc(Cl)cn2)CC1 | 3.7 |
| N#Cc1cc(CN2CCC(N(N)CC(=O)N3CSC[C@H]3C#N)CC2)ccc1-c1ccccc1 | 1.02 |
| CC(=O)N1CCC(N(N)CC(=O)N2CSC[C@H]2C#N)CC1 | 1.53 |
| N#C[C@@H]1CSCN1C(=O)CN(N)C1CCN(CC(=O)Nc2ncc(Br)s2)CC1 | 0.226 |
| N#C[C@@H]1CSCN1C(=O)CN(N)C1CCN(CC(=O)Nc2ccc(C(F)(F)F)cc2)CC1 | 0.308 |
| COc1ccc(S(=O)(=O)N2CCC(N(N)CC(=O)N3CSC[C@H]3C#N)CC2)cc1 | 6.68 |
| N#C[C@@H]1CSCN1C(=O)CN(N)C1CCNCC1 | 12.1 |
| N#Cc1ccc(NC(=O)CN2CCC(N(N)CC(=O)N3CSC[C@H]3C#N)CC2)nc1 [listing 1 of 2 here] | 0.11 |
| CCNN(CC(=O)N1CSC[C@H]1C#N)C1CCN(S(C)(=O)=O)CC1 | 3.76 |
| N#C[C@@H]1CSCN1C(=O)CN(N)C1CCN(CC(=O)Nc2ccc(S(N)(=O)=O)cc2)CC1 [listing 2 of 2 here] | 0.09 |
| N#C[C@@H]1CSCN1C(=O)CN(N)C1CCN(CC(=O)NC23CC4CC(CC(C4)C2)C3)CC1 | 0.523 |
| N#C[C@@H]1CSCN1C(=O)CN(N)C1CCN(CC(=O)Nc2ccc(F)c(Cl)c2)CC1 | 0.359 |
| N#C[C@@H]1CSCN1C(=O)CN(N)C1CCN(CC(=O)NC2CCCCC2)CC1 | 0.506 |
| N#C[C@@H]1CSCN1C(=O)CN(N)C1CCN(COc2ccccc2)CC1 | 0.638 |

| Structure (SMILES) | IC50 [µM] |
| --- | --- |
| CC(C)OCCCNC(=O)CN1CCC(N(N)CC(=O)N2CSC[C@H]2C#N)CC1 | 0.468 |
| N#C[C@@H]1CSCN1C(=O)CN(N)C1CCN(CC(=O)NC2CC2)CC1 [listing 1 of 2 here] | 0.217 |
| N#C[C@@H]1CSCN1C(=O)CN(N)C1CCN(Cc2ccc(F)cc2)CC1 | 2.23 |
| N#Cc1ccc(NC(=O)CN2CCC(N(N)CC(=O)N3CSC[C@H]3C#N)CC2)nc1 [listing 2 of 2 here] | 0.13 |
| CCNN(CC(=O)N1CSC[C@H]1C#N)C1CCN(CC(=O)Nc2ccc(Cl)cn2)CC1 | 0.49 |
| N#C[C@@H]1CSCN1C(=O)CN(N)C1CCN(CC(=O)Nc2nc3ccccc3s2)CC1 | 0.134 |
| CS(=O)(=O)N1CCC(N(N)CC(=O)N2CSC[C@H]2C#N)CC1 | 1.46 |
| N#C[C@@H]1CSCN1C(=O)CN(N)C1CCN(Cc2ccccc2)CC1 | 1.63 |
| Cc1nc(NC(=O)CN2CCC(N(N)CC(=O)N3CSC[C@H]3C#N)CC2)sc1C | 0.185 |
| N#C[C@@H]1CSCN1C(=O)CN(N)C1CCN(C(=O)CN2CCOCC2)CC1 | 0.83 |
| N#C[C@@H]1CSCN1C(=O)CN(N)C1CCN(Cc2ccc([N+](=O)[O-])cc2)CC1 | 0.698 |
| N#C[C@@H]1CSCN1C(=O)CN(N)C1CCN(CC(=O)Nc2ncccn2)CC1 | 0.143 |
| N#C[C@@H]1CSCN1C(=O)CN(N)C1CCN(CC(=O)NC2CC2)CC1 [listing 2 of 2 here] | 0.236 |
| N#C[C@@H]1CSCN1C(=O)CN(N)C1CCN(Cc2cccnc2)CC1 | 4.77 |
| N#Cc1ccc(NC(=O)CN2CCC(N(N)CC(=O)N3CSC[C@H]3C#N)CC2)cc1 | 0.2 |
| CC(C)(C)C(=O)N1CCC(N(N)CC(=O)N2CSC[C@H]2C#N)CC1 | 4.15 |
| N#C[C@@H]1CSCN1C(=O)CN(N)C1CCN(CC(=O)Nc2ccc3c(c2)OCO3)CC1 | 0.24 |
| N#C[C@@H]1CSCN1C(=O)CN(N)C1CCN(C(=O)N2CCOCC2)CC1 | 0.79 |
| N#C[C@@H]1CSCN1C(=O)CN(N)C1CCN(CC(=O)NCc2ccccc2F)CC1 | 0.51 |
| N#C[C@@H]1CSCN1C(=O)CN(N)C1CCN(C(=O)c2cccc(Cl)c2Cl)CC1 | 1.79 |

tested on: Rattus norvegicus; experiment: Antidiabetic activity in n5-STZ rat diabetic model assessed as decrease in glucose AUC at 44 mg/kg, po administered as single dose by OGTT

| Structure (SMILES) | Activity |
| --- | --- |
| N#C[C@@H]1CSCN1C(=O)CN(N)C1CCN(CC(=O)Nc2ccc(Cl)cn2)CC1 | Active |

Source: ChEMBL document CHEMBL1153816, “Novel N-substituted 4-hydrazino piperidine derivative as a dipeptidyl peptidase IV inhibitor” (Bioorg Med Chem Lett, 2009)
